The text below walks through data of patent publication US7348427B2, “Antipathogenic benzamide compounds” (Genesoft Pharmaceuticals, Inc., priority 2001, dated 2008).

Values after ≈ are worked out from the molar mass of the structure shown.

The subject of assay [1] is S. pneumoniae ATCC 49619. Description: MIC, NCCLS broth microdilution assay. The assay is classed as cell-based, Streptococcus pneumoniae. The conditions noted are these: H = S. pneumoniae ATCC 49619; for MIC: Streptococcus pneumoniae, ATCC49619, read-out: Minimum Inhibitory Concentration (MIC). The gist of the method:
(§1)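 MICs were determined by NCCLS broth microdilution following documents M7-A4 and M11-A4 (1997).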
Background: In broth dilution the organism is exposed to a series of concentrations in liquid medium.

The test system of assay [2] is Candida albicans (ATCC 38247). Description: Antifungal MIC assay. Type of assay: cell-based. The conditions noted are these: B = C. albicans ATCC 38247; for MIC: Candida albicans, ATCC38247, read-out: Minimum Inhibitory Concentration (MIC). The procedure, abridged:
(§2)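 Activity is measured as MIC in microtiter broth microdilution under NCCLS M7-A4, M11-A4 and M27-T guidance, with the yeast tested by the method in Murray's Manual of Clinical Microbiology.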

Assay [3] relates to Staphylococcus aureus (ATCC 27660, a methicillin resistant strain (MRSA)). Description: MIC, NCCLS broth microdilution assay. The conditions noted are these: F = S. aureus ATCC 27660; for MIC: Staphylococcus aureus, read-out: Minimum Inhibitory Concentration (MIC). The assay is classed as cell-based. The procedure, abridged: as §2
Assay [4] deals with Staphylococcus aureus (ATCC 13709, a methicillin sensitive strain (MSSA)). The experiment in a line: MIC, NCCLS broth microdilution assay. The assay is classed as cell-based. To be noted: E = S. aureus ATCC 13709; for MIC: Staphylococcus aureus, read-out: Minimum Inhibitory Concentration (MIC). The procedure, abridged:
as §2

Assay [5] concerns Bacillus cereus (ATCC 11778). The experiment in a line: MIC, NCCLS broth microdilution assay. Type of assay: cell-based. The conditions noted are these: A = B. cereus ATCC 11778; for MIC: Bacillus cereus, ATCC11778, read-out: Minimum Inhibitory Concentration (MIC). The procedure, abridged: as §2
Assay [6] relates to E. faecalis ATCC 29212. The experiment in a line: MIC, NCCLS broth microdilution assay. Type of assay: cell-based, Enterococcus faecalis. To be noted: C = E. faecalis ATCC 29212; for MIC: Enterococcus faecalis, ATCC29212, read-out: Minimum Inhibitory Concentration (MIC). The gist of the method:
as §1

In the case of `Cn1cc(NC(=O)c2ccc(F)cc2F)cc1C(=O)Nc1cc(C(=O)Nc2cc(C(=O)NCCN3CCCCC3)n(CCN3CCCCC3)c2)n(C)c1` [Compound D-5], the “Minimum Inhibitory Concentration (MIC)” value is “+++ (+++ = MIC ≦ 4)” in assay [1]; more than 32 µg/mL in assay [2]; “+++ (+++ = MIC ≦ 4)” in assay [3]; “+++ (+++ = MIC ≦ 4)” in assay [4]; “+++ (+++ = MIC ≦ 4)” in assay [5]; “+++ (+++ = MIC ≦ 4)” in assay [6].
Turning to `Cc1cc(NC(=O)c2cc(NC(=O)c3cc(NC(=O)c4ccc(F)cc4F)cn3C)cn2CCC[N+](C)(C)C)sn1` [Compound D-6], the “Minimum Inhibitory Concentration (MIC)” value is “+++ (+++ = MIC ≦ 4)” in assay [1]; more than 32 µg/mL in assay [2]; “+ (+ = 12 ≦ MIC ≦ 32)” in assay [3]; more than 32 µg/mL in assay [4]; “+ (+ = 12 ≦ MIC ≦ 32)” in assay [5]; “+ (+ = 12 ≦ MIC ≦ 32)” in assay [6].
With `CN(C)CCCn1cc(NC(=O)c2cc(NC(=O)c3ccc(F)cc3F)cn2C)cc1C(=O)Nc1cc(C(=O)NCCN2CCOCC2)n(C)c1` [Compound D-7], the “Minimum Inhibitory Concentration (MIC)” value is listed as “+++ (+++ = MIC ≦ 4)” in assay [1]; “+ (+ = 12 ≦ MIC ≦ 32)” in assay [2]; “+++ (+++ = MIC ≦ 4)” in assay [3]; “+++ (+++ = MIC ≦ 4)” in assay [4]; “+++ (+++ = MIC ≦ 4)” in assay [5]; “+++ (+++ = MIC ≦ 4)” in assay [6].
As to `Cn1cc(NC(=O)c2cc(NC(=O)c3ccc(Cl)cc3F)c[nH]2)cc1C(=O)Nc1cc(C(=O)NCCN2CCCCC2)n(CCN2CCCCC2)c1` [Compound D-14], the “Minimum Inhibitory Concentration (MIC)” value in assay [1] was “+++ (+++ = MIC ≦ 4)”; in assay [2], more than 32 µg/mL; in assay [3], “+++ (+++ = MIC ≦ 4)”; in assay [4] it was “+++ (+++ = MIC ≦ 4)”; in assay [5], “+++ (+++ = MIC ≦ 4)”; in assay [6] it was “+++ (+++ = MIC ≦ 4)”.
As to `Cc1cc(NC(=O)c2cc(NC(=O)c3cc(NC(=O)c4ccc(Cl)cc4F)cn3CCCN(C)C)c[nH]2)sn1` [Compound D-15], the “Minimum Inhibitory Concentration (MIC)” value in assay [1], in assay [2], in assay [3], in assay [4], in assay [5] and in assay [6] was “+++ (+++ = MIC ≦ 4)” each time.
For the molecule `Cc1cc(NC(=O)c2cc(NC(=O)c3cc(NC(=O)c4ccc(Cl)cc4F)c[nH]3)cn2CCC[N+](C)(C)C)sn1` [Compound D-23], the “Minimum Inhibitory Concentration (MIC)” value in assay [1] is given as “+++ (+++ = MIC ≦ 4)”; in assay [2] it was “++ (++ = 4 < MIC < 12)”; in assay [3] it was “+++ (+++ = MIC ≦ 4)”; in assay [4] it was “+++ (+++ = MIC ≦ 4)”; in assay [5], “+++ (+++ = MIC ≦ 4)”; in assay [6], “+++ (+++ = MIC ≦ 4)”.
For the molecule `Cc1cc(NC(=O)c2cc(NC(=O)c3cc(NC(=O)c4ccc(Cl)cc4F)cn3CCCN3CCC(O)CC3)c[nH]2)sn1` [Compound D-24], the “Minimum Inhibitory Concentration (MIC)” value in assay [1], in assay [2], in assay [3], in assay [4], in assay [5] and in assay [6] was “+++ (+++ = MIC ≦ 4)” throughout.
As for `CN(C)CCCn1cc(NC(=O)c2cc(NC(=O)c3ccc(Cl)cc3F)cn2C)cc1C(=O)Nc1cc(C(=O)NCCN2CCOCC2)n(C)c1` [Compound D-25], the “Minimum Inhibitory Concentration (MIC)” value in assay [1] is reported as “+++ (+++ = MIC ≦ 4)”; in assay [2] it was “+ (+ = 12 ≦ MIC ≦ 32)”; in assay [3], “+++ (+++ = MIC ≦ 4)”; in assay [4], “+++ (+++ = MIC ≦ 4)”; in assay [5], “+++ (+++ = MIC ≦ 4)”; in assay [6] it was “+++ (+++ = MIC ≦ 4)”.
For `CN(C)CCCn1cc(NC(=O)c2cc(NC(=O)c3ccc(Cl)cc3F)c[nH]2)cc1C(=O)Nc1cc(C(=O)NCCN2CCOCC2)n(C)c1` [Compound D-26], the “Minimum Inhibitory Concentration (MIC)” value is reported as “+++ (+++ = MIC ≦ 4)” in assay [1]; “+ (+ = 12 ≦ MIC ≦ 32)” in assay [2]; “+++ (+++ = MIC ≦ 4)” in assay [3]; “+++ (+++ = MIC ≦ 4)” in assay [4]; “+++ (+++ = MIC ≦ 4)” in assay [5]; “+++ (+++ = MIC ≦ 4)” in assay [6].
For `Cn1cc(NC(=O)c2cc(NC(=O)c3cc(NC(=O)c4ccc(Cl)cc4)cn3C)cn2CCN2CCOCC2)cc1C(=O)NCCN1CCOCC1` [Compound D-27], the “Minimum Inhibitory Concentration (MIC)” value in assay [1] was “+++ (+++ = MIC ≦ 4)”; in assay [2], more than 32 µg/mL; in assay [3], “+ (+ = 12 ≦ MIC ≦ 32)”; in assay [4], “+ (+ = 12 ≦ MIC ≦ 32)”; in assay [5], “++ (++ = 4 < MIC < 12)”; in assay [6], “+++ (+++ = MIC ≦ 4)”.
With `Cc1cc(NC(=O)c2cc(NC(=O)c3cc(NC(=O)c4ccc(Cl)cc4)cn3C)cn2CCN2CCOCC2)sn1` [Compound D-28], the “Minimum Inhibitory Concentration (MIC)” value is “+++ (+++ = MIC ≦ 4)” in assay [1]; more than 32 µg/mL in assay [2]; “+ (+ = 12 ≦ MIC ≦ 32)” in assay [3]; “+ (+ = 12 ≦ MIC ≦ 32)” in assay [4]; “+ (+ = 12 ≦ MIC ≦ 32)” in assay [5]; “+ (+ = 12 ≦ MIC ≦ 32)” in assay [6].
For `Cn1cc(NC(=O)c2cc(NC(=O)c3ccc(F)cc3F)no2)cc1C(=O)NCCN1CCOCC1` [Compound E-3], the “Minimum Inhibitory Concentration (MIC)” value in assay [1] was “+ (+ = 12 ≦ MIC ≦ 32)”; in assay [2], more than 32 µg/mL; in assay [3], “+ (+ = 12 ≦ MIC ≦ 32)”; in assay [4], more than 32 µg/mL; in assay [5], “+ (+ = 12 ≦ MIC ≦ 32)”; in assay [6] it was “+ (+ = 12 ≦ MIC ≦ 32)”.
As for `Cn1cc(NC(=O)c2cc(NC(=O)c3cc(NC(=O)c4ccc(F)cc4F)no3)cn2C)cc1C(=O)NCCN1CCOCC1` [Compound E-8], the MIC in assay [1] is not above 4 µg/mL; in assay [2] it was more than 32 µg/mL; in assay [3], not above 4 µg/mL; in assay [4] it was not above 4 µg/mL; in assay [5], 12 to 32 µg/mL (≈ 19.2 to 51.2 µM); in assay [6], not above 4 µg/mL.
Turning to `Cn1cc(NC(=O)c2cc(NC(=O)c3cnc(NC(=O)c4ccc(F)cc4F)s3)cn2C)cc1C(=O)NCCN1CCOCC1` [Compound E-9], the MIC is 12 to 32 µg/mL (≈ 18.7 to 49.9 µM) in assay [1]; more than 32 µg/mL in assay [2]; more than 32 µg/mL in assay [3]; more than 32 µg/mL in assay [4]; more than 32 µg/mL in assay [5]; 12 to 32 µg/mL (≈ 18.7 to 49.9 µM) in assay [6].
